{
  "source": "paper PMC11561197",
  "about": "“Computational-guided discovery of UDP-glycosyltransferases for lauryl glucoside production using engineered E. coli” (Bioresources and Bioprocessing, 2024)",
  "target": "T1, RO3G (UDP-glycosyltransferase candidate, EIE92684.1) (Rhizopus delemar, UniProt I1CW54)",
  "T1 construct": "gene RO3G_17395; codon-optimised synthetic gene in pCDFDuet-1, expressed in E. coli BL21(DE3); no predicted signal peptide; not purified",
  "T1 sequence (I1CW54 1-527)": "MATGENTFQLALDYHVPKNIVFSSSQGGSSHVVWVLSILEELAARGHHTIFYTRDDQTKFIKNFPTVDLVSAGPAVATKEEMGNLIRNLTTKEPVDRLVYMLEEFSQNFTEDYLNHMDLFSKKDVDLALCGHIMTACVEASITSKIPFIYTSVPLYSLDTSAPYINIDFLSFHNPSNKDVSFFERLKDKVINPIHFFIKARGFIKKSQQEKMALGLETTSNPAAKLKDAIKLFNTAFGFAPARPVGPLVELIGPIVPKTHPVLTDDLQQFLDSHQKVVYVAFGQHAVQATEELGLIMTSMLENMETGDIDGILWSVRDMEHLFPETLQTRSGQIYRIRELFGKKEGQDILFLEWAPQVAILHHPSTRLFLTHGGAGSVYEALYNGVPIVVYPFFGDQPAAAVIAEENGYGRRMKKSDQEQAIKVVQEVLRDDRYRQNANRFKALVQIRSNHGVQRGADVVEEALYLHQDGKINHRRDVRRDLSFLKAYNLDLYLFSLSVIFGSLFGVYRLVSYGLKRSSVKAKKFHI",
  "experiment": "1-dodecanol feeding of expressing E. coli; lauryl glucoside by HPLC-RI and LC-MS",
  "assay_type": "cell-based",
  "settings": "whole E. coli BL21(DE3), M9 with 2% glucose, 2.0 mM 1-dodecanol, 30 °C, 48 h; endogenous UDP-glucose as presumed donor; GFP strain as control",
  "data": [
    {"smiles": "CCCCCCCCCCCCO", "note": "[1-dodecanol]", "values": [
      {"measurement": "1-dodecanol feeding of expressing E. coli; lauryl glucoside by HPLC-RI and LC-MS", "value": "The engineered strain successfully converted 1-dodecanol to lauryl glucoside, as quantified by HPLC"}
    ]}
  ]
}
